Source: paper PMC12247024, “PCFT‐Independent Cellular Uptake of Cyclic Cell‐Penetrating Peptide‐Conjugated Folic Acid” (Chembiochem, 2025)
Positions of bridges follow the written chain, without caps; N, C: chain ends. Residues, ends and D or L forms follow the SMILES beside them.

Assays:
[1] = RP‐HPLC ACN elution (relative hydrophobicity); type: physicochemical; conditions: PFP column, water/acetonitrile gradient 5%–95% with 0.1% TFA, detection 220 nm, used by the paper as measure of overall hydrophobicity
Excerpt: Peptides were purified using a reverse‐phase high‐performance liquid chromatography (RP‐HPLC) system, Agilent Technologies (Santa Clara, CA, USA), with water and acetonitrile gradient (5%–95%), containing 0.1% TFA as the mobile phase. Pentafluorophenyl (PFP) column was used as the stationary phase, and samples were detected at the absorbance of 220 nm. Electronic spray ionization‐mass spectrometry (ESI‐MS) was used to determine the molecular weights of the synthesized peptides. Mass spectrometry data were provided by the AIMS Mass Spectrometry Laboratory at the University of Toronto. The peptide conjugates were characterized by electrospray ionization mass spectrometry (ESI‐MS) with agreement between the predicted and experimental molecular weights (Table 1). The peptides, cTAT‐folic acid conjugates, and fluorescein‐labeled conjugates were assessed for the peptide purity by analytical RP‐HPLC system (Figure S6–S11, Supporting Information). The broader peaks, peak splitting, and lower signaling intensity of cyclic peptide and their conjugates in the chromatograms are due to the limited interactions of the peptides with the HPLC columns. The appearance of double peaks for TAMRA conjugated linear and cyclic peptides and of folic acid is likely due to the use of 5‐ and 6‐TAMRA isomer, since isomeric dye conjugated molecules tend to show multiple peaks in RP‐HPLC.^[ [23] ^] […] The bioconjugation of folic acid with cTAT increased the overall hydrophobicity of the cyclic peptide (%ACN elution change from 24% to 34% for cTAT and cTAT‐folic acid respectively), and the ACN elution profile of the conjugates was similar to that of folic acid (Table 1).

[2] = system: IL‐1β, TNF‐α and IL‐10 production in RAW 264.7 cells; test: Cytokine release (ELISA) upon LPS challenge; type: cell-based, mouse; conditions: RAW264.7, LPS for 1 h, then folic acid 20 μM or cTAT‐folic acid 4.5 μM, n = 3, p < 0.01
Method: HD‐11 and RAW 264.7 cells were cultured in folic acid free RPMI containing 10% FBS and 1% penicillin–[…] solution. Cytokine release profile from HD‐11 chicken macrophage cells and RAW 264.7 […] macrophage cells was studied by treating cells in growth phase (≈70% confluency) with 1 μg mL^−1 LPS or with IBDV at TCID50 for 1 h, followed by the addition of folic acid (20 μM) and cTAT‐folic acid conjugates (4.5 μM) in serum‐free, folic acid‐negative RPMI‐1640 medium. After 24 h of incubation, cell culture supernatant were collected, and production of chicken IL‐1β and IFN‐β cytokines in HD‐11 was evaluated in triplicate by ELISA kits purchased from Genorise Scientific Inc. (Berwyn, PA 19 312, United States). The production of mouse IL‐1β, TNF‐α and IL‐10 was quantified in RAW 264.7 cells in triplicates by ELISA assay.
Figure 4 ELISA assay showing A) cytokine expression in HD‐11 cells upon IBDV infection for 1 h, followed by the treatment with folic acid (20 μM) and cTAT‐folic acid conjugates (4.5 μM), and B) cytokine expression (IL‐1β, IL‐10, and TNF‐α) upon LPS (0.5 μg mL^−1) challenge of RAW 264.7 for 1 h, followed by the treatment with folic acid (20 μM) and cTAT‐folic acid conjugates (4.5 μM) for 4 h. The values are mean ± standard error for n = 3, *p < 0.01 and **p < 0.05.

[3] = system: IL‐1β and IFN‐β production in HD‐11 cells; test: Cytokine release (ELISA) upon IBDV infection; type: cell-based, chicken; conditions: HD‐11, IBDV at TCID50 for 1 h, then folic acid 20 μM or cTAT‐folic acid 4.5 μM, n = 3, p < 0.01
Method: A modified live IBDV vaccine, UNIVAX‐BDmild strain (ST12) from MSD Animal Health, was reconstituted with10 mL of PBS, and 500 μL aliquots were stored at −80 °C, according to previously reported procedures.^[ [25] ^] An aliquot of the vaccine was added to a tissue culture‐treated T‐25 flask containing confluent HD‐11 cells, and the flask was incubated at 37 °C with 5% CO2 for 1 h to reproduce the virus and to obtain multiplicity of infection (MOI = 1). Following this, 5 mL of media was added, and the cells were incubated for 72 h under the same conditions. After that, the supernatant was extracted, centrifuged for 10 min at 1000 × g, and 500 μL aliquots were taken out and kept at −80 °C to evaluate 50% tissue culture infective‐dose assay (TCID50) in HD‐11. […] The plate was incubated at 37 °C with 5% CO2 for 4 h, and TCID50 was evaluated by MTS assay, as described above.
HD‐11 and RAW 264.7 cells were cultured in folic acid free RPMI containing 10% FBS and 1% penicillin–[…] solution. […] After 24 h of incubation, cell culture supernatant were collected, and production of chicken IL‐1β and IFN‐β cytokines in HD‐11 was evaluated in triplicate by ELISA kits purchased from Genorise Scientific Inc. (Berwyn, PA 19 312, United States). The production of mouse IL‐1β, TNF‐α and IL‐10 was quantified in RAW 264.7 cells in triplicates by ELISA assay. […]

[4] = system: DHFR activity in Caco‐2 cell lysates; test: DHFR assay in lysates of treated cells; type: cell-based; conditions: for DHFR activity in cell lysates: Caco‐2 treated at acidic pH for 4 h, NADPH absorbance 340 nm, mean, n = 3
Method: DHFR kit was purchased from Millipore Sigma and was used to analyze DHFR activity, according to manufacturer's protocol. DHFR enzyme catalyzes the reduction of dihydrofolic acid to tetrahydrofolic acid, which is reversible and NADPH‐dependent reaction.
Dihydrofolic acid + NADPH + H^+ ↔ Tetrahydrofolic acid + NADP^+
Briefly, 20 μM NADPH, 15 μM DHF, 5 μM DHFR, 50 mM Tris (pH 7.5), and 2 mg mL^−1 of cell lysates from Caco‐2 samples treated with 4.5 μM of cTAT‐folic acid conjugates and 20 μM folic acid were added to obtain final volume of 100 μL. DHFR activity at room temperature was monitored by continuously measuring the drop in NADPH concentration, by taking the absorbance at 340 nm for up to 2.5 min.
Figure 3 DHFR activity in units/mg of protein in Caco‐2 cells lysates, performed 4‐h post‐treatment. A) Cotreatment of cells with folic acid, cTAT‐folic acid conjugates, and myricetin and B) treatment of cell lysates with methotrexate (MTX). The values are mean ± standard error for n = 3, *p < 0.01. Units per mg indicate DHFR activity per mg of protein in the sample, where total protein content (mg) in each sample was measured by BCA assay.

HD‐11 cells = test: Cellular uptake of fluorophore‐labeled linear and cyclic peptides; type: cell-based, chicken; conditions: HD‐11, fluorophore‐labeled peptides, fluorescence microscopy and cell lysates by microplate reader
Method: (§1) Caco‐2 and HD‐11 cells were then seeded in six‐well plates at a density of 2.0 × 10^5 cells per well, in 2 mL of RPMI no folic acid medium. After overnight incubation, the cells were further incubated for 4 h with fluorescent folic acid and with cTAT‐folic acid‐FL conjugates (4.5 μM) at 37 °C in a humidified atmosphere containing 5% CO2. The cells were washed with PBS, and relative fluorescence of the samples was analyzed with the microplate reader using excitation wavelength of 490 nm and emission wavelength of 520 nm.
(§2) Compared with the linear peptides, cyclic analogs are well documented for enhanced physiological stability and resistance to enzymatic degradation.^[ [20], [21], [22] ^]

Caco‐2 cells [5] = test: as above; type: cell-based; conditions: Caco‐2, fluorophore‐labeled peptides, fluorescence microscopy and cell lysates by microplate reader
Method: as §1, §2

trypsin = system: T1, trypsin; test: Trypsin treatment, intact peptide by HPLC; type: in vitro ADME; conditions: isolated enzyme trypsin
T1 construct: purchased Sigma Aldrich / VWR Life Sciences
Excerpt: as §2

[6] = Trypsin treatment, intact peptide by HPLC; type: in vitro ADME; conditions: isolated enzyme trypsin, trypsin, HPLC chromatogram analysis, read-out: intact peptide after trypsin treatment
Excerpt: as §2

[7] = system: PCFT expression in Caco‐2 cells; test: WB analysis of PCFT/GAPDH expression; type: cell-based; conditions: Caco‐2, 50 μM, p < 0.01
Method: Caco‐2 cells were seeded in six well culture plate at 1 × 10^6 cells per well in RPMI 1640 folic acid negative medium for 24 h followed by the addition of folic acid, cTAT, and cTAT‐folic acid conjugates (0.1–200 μM) for 4 h. 0.5 mL of pre‐chilled RIPA lysis buffer at 4 °C was added to Caco‐2 cells in six‐well plate. The cell samples were scraped and centrifuged at 14 000 × g to remove cellular debris. The amount of protein in cell lysate was measured by using BCA assay. The protein samples (25 μg) were loaded directly onto 12% Tris·HCl polyacrylamide gels using 6X SDS loading buffer (1:1) containing DTT, and gel was run for 1 h at 110 V. After SDS‐PAGE, proteins were transferred to nitrocellulose membrane for 80 min at 110 V (Bio‐rad, Hercules, California, USA). […] Figure 2 PCFT/GAPDH expression in Caco‐2 cells was measured by the WBs as a function of concentration of, A) folic acid, B) cTAT‐folic acid conjugates, and C) comparison of cTAT‐folic acid conjugates (4.5 μM) with unconjugated cTAT + folic acid (4.5 μM).The experiments were replicated twice in triplicates (n = 3) and upon 4 h post‐treatment. […]

Caco‐2 cells [8] = test: Cellular uptake of fluorescein‐labeled folic acid and conjugates; type: cell-based; conditions: Caco‐2, 4.5 μM
Method: as §1
The cellular uptake of fluorophore‐labeled folic acid (folic acid‐FL) and cTAT‐folic acid conjugates (cTAT‐folic acid‐FL) was studied at 4.5 μM concentration in Caco‐2 cells, at the physiological and acidic pH.
Figure 1 Cellular uptake of fluorescein‐labeled folic acid and cTAT‐folic acid conjugates (4.5 μM) in Caco‐2 cells in the presence and absence of inhibitors at A) acidic and B) physiological pH. C) WB analysis of PCFT/GAPDH expression in Caco‐2 cells in the presence of 50 μM myricetin. The experiments were replicated in triplicates (n = 3). The values are mean ± standard error for n = 3, *p < 0.01.

[9] = folic acid 20 μM, cTAT‐folic acid 4.5 μM

Nc1nc(=O)c2nc(CNc3ccc(C(=O)N[C@@H](CCC(=O)O)C(=O)O)cc3)cnc2[nH]1 [Folic acid]
ACN elution [%] [1]: 34.06% | production of proinflammatory cytokines in challenged macrophages [2]: reduced the production of proinflammatory cytokines | production of proinflammatory cytokines in challenged macrophages [3]: reduced the production of proinflammatory cytokines | DHFR activity in cell lysates, cotreatment with myricetin ([4]; Caco‐2, acidic pH, 4 h, folic acid 20 μM, cTAT‐folic acid 4.5 μM, plus myricetin): 10 units mg^−1 of protein | DHFR activity in MTX‐treated cell lysates ([4]; Caco‐2 lysates plus methotrexate 100 μM): negligible DHFR activity | DHFR activity in cell lysates [4, 9]: 59 units mg^−1 of protein

N=C(N)NCCC[C@@H]1NC(=O)[C@H](CCCCN)NC(=O)[C@H](CCCCN)NC(=O)[C@H](CCCNC(=N)N)NC(=O)[C@H](CCCNC(=N)N)NC(=O)[C@H](CCC(N)=O)NC(=O)[C@H](CCCNC(=N)N)NC(=O)[C@H](CCCNC(=N)N)NC(=O)[C@H](CCCNC(=N)N)NC(=O)[C@@H](N)CCCCNC(=O)CC[C@@H](C(N)=O)NC(=O)[C@H](Cc2ccc(O)cc2)NC(=O)CNC1=O [cTAT] (H-KRRRQRRKKRGYE-NH2; lactam 1-13)
cellular uptake, cyclic versus linear peptide (HD‐11 cells): significantly higher cellular uptake | ACN elution [%] [1]: 24% | cellular uptake, cyclic versus linear peptide (Caco‐2 cells [5]): significantly higher cellular uptake | DHFR activity in cell lysates [4, 9]: no significant DHFR activity | remaining at 1 h (trypsin): 49% | remaining at 20 h (trypsin): 27%

N=C(N)NCCC[C@H](NC(=O)[C@H](CCCCN)NC(=O)[C@H](CCCCN)NC(=O)[C@H](CCCNC(=N)N)NC(=O)[C@H](CCCNC(=N)N)NC(=O)[C@H](CCC(N)=O)NC(=O)[C@H](CCCNC(=N)N)NC(=O)[C@H](CCCNC(=N)N)NC(=O)[C@H](CCCNC(=N)N)NC(=O)[C@@H](N)CCCCN)C(=O)NCC(=O)N[C@@H](Cc1ccc(O)cc1)C(=O)N[C@@H](CCC(=O)O)C(N)=O [linear peptide] (H-KRRRQRRKKRGYE-NH2; N-terminus assumed)
cellular uptake, cyclic versus linear peptide (HD‐11 cells): lower uptake at all studied time points | cellular uptake, cyclic versus linear peptide (Caco‐2 cells [5]): lower uptake at all studied time points | remaining at 1 h ([6]; 1 h incubation): 36% | remaining at 20 h ([6]; 20 h post‐treatment): 15%

O=c1c(O)c(-c2cc(O)c(O)c(O)c2)oc2cc(O)cc(O)c12 [myricetin]
PCFT expression compared with the untreated cells [7]: significantly downregulated

CONH2‐c[EYGRKKRRQRRRK]C(FL)‐NH‐folic acid (sidechain bridge or staple) [cTAT‐folic acid‐FL, fluorescein‐labeled cTAT‐folic acid conjugate, fluorescein on an inserted Cys]
ACN elution [%] [1]: 29.86% | difference in cellular uptake between acidic and physiological pH (Caco‐2 cells [8]): no significant difference | cellular uptake upon ethanol treatment of the cells (Caco‐2 cells [8]; physiological and acidic pH): only partially inhibited
